Test results reported in ChEMBL document CHEMBL4765296, “Purine/purine isoster based scaffolds as new derivatives of benzamide class of HDAC inhibitors” (Eur J Med Chem, 2020).
Calls of active or inactive are those of the source. The rule behind the calls is not given here.

Legend:
MDA-MB-468 = test: Cytotoxicity in human MDA-MB-468 cells assessed as reduction in cell viability incubated for 72 hrs by MTT assay; assay type: functional, cell-based
MCF7 = test: Cytotoxicity in human MCF7 cells assessed as reduction in cell viability incubated for 72 hrs by MTT assay; assay type: functional, cell-based
[1] = Cytotoxicity against human HDACi-sensitive YCC3 cells assessed as reduction in cell growth incubated for 72 hrs by MTS assay; assay type: functional, cell-based; conditions: YCC3/7, 72 h
MDA-MB-231 [2] = test: Induction of cell cycle arrest in human MDA-MB-231 cells assessed as reduction in population at S phase at 4 uM for 24 hrs by PI staining based flow cytometry analysis; assay type: functional
MDA-MB-231 [3] = test: Induction of cell cycle arrest in human MDA-MB-231 cells assessed as reduction in population between G1 to G2/M phases at 4 uM for 24 hrs by PI staining based flow cytometry analysis; assay type: functional
MDA-MB-231 [4] = test: Induction of cell cycle arrest in human MDA-MB-231 cells assessed as accumulation of cells at G1 phase at 4 uM for 24 hrs in presence of nocodazole by PI staining based flow cytometry analysis; assay type: functional
MDA-MB-231 [5] = test: Induction of apoptosis in human MDA-MB-231 cells assessed as increase in cleaved PARP-1 level incubated for 24 hrs by Western blot analysis; assay type: functional, cell-based
MDA-MB-231 [6] = test: Induction of cell cycle arrest in human MDA-MB-231 cells assessed as accumulation of cells at subG1 phase at 16 uM for 48 hrs by PI staining based flow cytometry analysis; assay type: functional
MDA-MB-231 [7] = test: Induction of apoptosis in human MDA-MB-231 cells assessed as increase in cleaved caspase-3 level incubated for 24 hrs by Western blot analysis; assay type: functional, cell-based
MDA-MB-231 [8] = test: Induction of apoptosis in human MDA-MB-231 cells assessed as increase in cleaved caspase-8 level incubated for 24 hrs by Western blot analysis; assay type: functional, cell-based
HepG2 = test: cells; conditions: Homo sapiens, HepG2, 72 h
Description: Antiproliferative activity against human HepG2 cells assessed as cell growth inhibition measured after 72 hrs by MTT assay

MDA-MB-231 [9] = test: Antiproliferative activity against human MDA-MB-231 cells assessed as cell growth inhibition measured after 72 hrs by MTT assay; assay type: functional, cell-based; conditions: MDA-MB-231, 72 h
cells = conditions: Homo sapiens, YCC-11, 72 h
Description: Cytotoxicity against human HDACi-sensitive YCC-11 cells assessed as reduction in cell growth incubated for 72 hrs by MTS assay

Histone deacetylase 4 = Histone deacetylase 4 (Homo sapiens, UniProt P56524); test: Inhibition of human recombinant HDAC4 expressed in baculovirus using fluorogenic peptide p53 residues 379-382 (RHKK(Ac)AMC) as substrate by Fluorescence analysis
Histone deacetylase 5 = Histone deacetylase 5 (Homo sapiens, UniProt Q9UQL6); test: Inhibition of human recombinant HDAC5 expressed in baculovirus using fluorogenic peptide p53 residues 379-382 (RHKK(Ac)AMC) as substrate by Fluorescence analysis
Histone deacetylase 7 = molecular target: T1, Histone deacetylase 7 (Homo sapiens, UniProt Q8WUI4); test: Inhibition of human recombinant HDAC7 expressed in baculovirus using fluorogenic peptide p53 residues 379-382 (RHKK(Ac)AMC) as substrate by Fluorescence analysis
T1 sequence (Q8WUI4 whole entry): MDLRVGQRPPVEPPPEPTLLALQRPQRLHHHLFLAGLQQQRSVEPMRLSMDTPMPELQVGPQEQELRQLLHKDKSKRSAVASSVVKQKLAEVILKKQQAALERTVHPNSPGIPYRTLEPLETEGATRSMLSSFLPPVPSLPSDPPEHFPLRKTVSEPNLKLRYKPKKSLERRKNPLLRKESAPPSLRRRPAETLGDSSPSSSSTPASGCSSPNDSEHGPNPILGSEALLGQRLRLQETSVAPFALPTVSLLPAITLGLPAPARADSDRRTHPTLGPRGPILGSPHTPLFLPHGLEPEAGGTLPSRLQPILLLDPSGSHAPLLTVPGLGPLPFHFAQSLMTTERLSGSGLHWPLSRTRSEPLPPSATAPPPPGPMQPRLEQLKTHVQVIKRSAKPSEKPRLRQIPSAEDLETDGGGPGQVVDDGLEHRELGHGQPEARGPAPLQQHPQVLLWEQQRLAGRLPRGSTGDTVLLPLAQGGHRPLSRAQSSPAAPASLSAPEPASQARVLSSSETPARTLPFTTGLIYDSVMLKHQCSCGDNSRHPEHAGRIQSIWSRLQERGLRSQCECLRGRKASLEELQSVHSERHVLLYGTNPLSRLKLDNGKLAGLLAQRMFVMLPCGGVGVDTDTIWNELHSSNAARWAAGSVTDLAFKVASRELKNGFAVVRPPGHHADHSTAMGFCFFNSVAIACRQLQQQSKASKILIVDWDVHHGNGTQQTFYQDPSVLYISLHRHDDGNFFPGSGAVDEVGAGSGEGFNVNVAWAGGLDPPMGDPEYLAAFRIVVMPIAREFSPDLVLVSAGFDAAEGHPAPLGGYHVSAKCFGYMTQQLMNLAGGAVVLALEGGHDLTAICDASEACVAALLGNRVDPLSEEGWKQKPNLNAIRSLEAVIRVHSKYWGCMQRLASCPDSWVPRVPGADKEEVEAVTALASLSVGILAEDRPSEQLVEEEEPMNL

Histone deacetylase 9 = Histone deacetylase 9 (Homo sapiens, UniProt Q9UKV0); test: Inhibition of human recombinant HDAC9 expressed in baculovirus using fluorogenic peptide p53 residues 379-382 (RHKK(Ac)AMC) as substrate by Fluorescence analysis
Chain of Histone deacetylase 9 (Q9UKV0 whole entry, the tested form may be a part): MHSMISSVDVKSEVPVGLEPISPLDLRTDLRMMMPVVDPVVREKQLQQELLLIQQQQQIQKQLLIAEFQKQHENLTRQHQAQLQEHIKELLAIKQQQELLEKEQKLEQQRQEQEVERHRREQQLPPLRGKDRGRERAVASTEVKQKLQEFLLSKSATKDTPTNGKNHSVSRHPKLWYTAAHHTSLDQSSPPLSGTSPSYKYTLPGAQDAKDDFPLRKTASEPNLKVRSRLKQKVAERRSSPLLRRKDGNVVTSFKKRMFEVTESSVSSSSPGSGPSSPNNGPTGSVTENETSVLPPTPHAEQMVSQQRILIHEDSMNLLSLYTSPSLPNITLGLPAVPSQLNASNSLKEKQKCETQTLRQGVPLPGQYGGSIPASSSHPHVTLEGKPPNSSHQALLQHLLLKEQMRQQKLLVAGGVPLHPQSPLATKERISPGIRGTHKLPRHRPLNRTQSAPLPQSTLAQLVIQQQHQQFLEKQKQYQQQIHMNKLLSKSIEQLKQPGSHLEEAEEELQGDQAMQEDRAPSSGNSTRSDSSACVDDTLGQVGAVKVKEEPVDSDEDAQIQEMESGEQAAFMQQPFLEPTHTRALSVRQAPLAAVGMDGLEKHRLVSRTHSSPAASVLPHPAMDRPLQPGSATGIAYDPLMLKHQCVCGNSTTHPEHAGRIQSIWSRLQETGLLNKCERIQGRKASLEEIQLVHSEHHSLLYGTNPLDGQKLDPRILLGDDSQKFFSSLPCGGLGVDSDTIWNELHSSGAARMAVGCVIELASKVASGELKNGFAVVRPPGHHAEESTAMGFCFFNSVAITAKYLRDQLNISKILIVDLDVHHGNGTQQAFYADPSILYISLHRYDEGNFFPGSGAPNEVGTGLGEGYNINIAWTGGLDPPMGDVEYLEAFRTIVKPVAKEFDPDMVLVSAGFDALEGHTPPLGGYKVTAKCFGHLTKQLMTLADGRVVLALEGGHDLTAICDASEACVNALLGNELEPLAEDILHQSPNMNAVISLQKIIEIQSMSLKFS

Chain of Histone deacetylase 5 (Q9UQL6 whole entry, the tested form may be a part): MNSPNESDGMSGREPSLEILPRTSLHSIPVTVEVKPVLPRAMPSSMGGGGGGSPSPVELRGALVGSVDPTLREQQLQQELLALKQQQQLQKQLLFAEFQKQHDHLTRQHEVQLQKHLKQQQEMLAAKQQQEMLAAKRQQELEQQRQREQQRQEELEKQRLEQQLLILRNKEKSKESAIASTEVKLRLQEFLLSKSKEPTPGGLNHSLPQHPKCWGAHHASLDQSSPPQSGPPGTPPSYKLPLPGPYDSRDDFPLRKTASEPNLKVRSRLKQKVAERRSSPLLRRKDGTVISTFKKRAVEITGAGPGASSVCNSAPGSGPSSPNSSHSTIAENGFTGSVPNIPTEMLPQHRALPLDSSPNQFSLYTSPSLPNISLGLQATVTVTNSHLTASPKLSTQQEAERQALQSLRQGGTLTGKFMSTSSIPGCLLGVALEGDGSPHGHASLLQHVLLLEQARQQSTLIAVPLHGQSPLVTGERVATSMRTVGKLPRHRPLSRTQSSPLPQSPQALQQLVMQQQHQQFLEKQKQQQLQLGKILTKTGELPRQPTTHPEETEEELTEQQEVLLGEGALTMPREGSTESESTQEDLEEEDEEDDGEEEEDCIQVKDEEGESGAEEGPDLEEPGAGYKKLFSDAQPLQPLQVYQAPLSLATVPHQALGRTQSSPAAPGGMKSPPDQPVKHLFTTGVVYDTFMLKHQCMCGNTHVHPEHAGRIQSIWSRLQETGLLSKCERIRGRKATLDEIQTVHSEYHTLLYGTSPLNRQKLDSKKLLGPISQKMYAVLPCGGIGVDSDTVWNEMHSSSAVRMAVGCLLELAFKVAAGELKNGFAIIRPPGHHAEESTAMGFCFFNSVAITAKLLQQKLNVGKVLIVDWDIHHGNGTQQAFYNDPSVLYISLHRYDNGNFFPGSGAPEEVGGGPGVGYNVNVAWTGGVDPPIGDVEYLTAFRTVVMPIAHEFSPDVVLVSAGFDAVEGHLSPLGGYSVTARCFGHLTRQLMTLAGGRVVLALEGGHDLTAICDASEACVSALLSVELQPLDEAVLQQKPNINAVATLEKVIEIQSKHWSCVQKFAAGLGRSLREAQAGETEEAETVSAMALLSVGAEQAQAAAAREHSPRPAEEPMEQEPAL
Chain of Histone deacetylase 4 (P56524 whole entry, the tested form may be a part): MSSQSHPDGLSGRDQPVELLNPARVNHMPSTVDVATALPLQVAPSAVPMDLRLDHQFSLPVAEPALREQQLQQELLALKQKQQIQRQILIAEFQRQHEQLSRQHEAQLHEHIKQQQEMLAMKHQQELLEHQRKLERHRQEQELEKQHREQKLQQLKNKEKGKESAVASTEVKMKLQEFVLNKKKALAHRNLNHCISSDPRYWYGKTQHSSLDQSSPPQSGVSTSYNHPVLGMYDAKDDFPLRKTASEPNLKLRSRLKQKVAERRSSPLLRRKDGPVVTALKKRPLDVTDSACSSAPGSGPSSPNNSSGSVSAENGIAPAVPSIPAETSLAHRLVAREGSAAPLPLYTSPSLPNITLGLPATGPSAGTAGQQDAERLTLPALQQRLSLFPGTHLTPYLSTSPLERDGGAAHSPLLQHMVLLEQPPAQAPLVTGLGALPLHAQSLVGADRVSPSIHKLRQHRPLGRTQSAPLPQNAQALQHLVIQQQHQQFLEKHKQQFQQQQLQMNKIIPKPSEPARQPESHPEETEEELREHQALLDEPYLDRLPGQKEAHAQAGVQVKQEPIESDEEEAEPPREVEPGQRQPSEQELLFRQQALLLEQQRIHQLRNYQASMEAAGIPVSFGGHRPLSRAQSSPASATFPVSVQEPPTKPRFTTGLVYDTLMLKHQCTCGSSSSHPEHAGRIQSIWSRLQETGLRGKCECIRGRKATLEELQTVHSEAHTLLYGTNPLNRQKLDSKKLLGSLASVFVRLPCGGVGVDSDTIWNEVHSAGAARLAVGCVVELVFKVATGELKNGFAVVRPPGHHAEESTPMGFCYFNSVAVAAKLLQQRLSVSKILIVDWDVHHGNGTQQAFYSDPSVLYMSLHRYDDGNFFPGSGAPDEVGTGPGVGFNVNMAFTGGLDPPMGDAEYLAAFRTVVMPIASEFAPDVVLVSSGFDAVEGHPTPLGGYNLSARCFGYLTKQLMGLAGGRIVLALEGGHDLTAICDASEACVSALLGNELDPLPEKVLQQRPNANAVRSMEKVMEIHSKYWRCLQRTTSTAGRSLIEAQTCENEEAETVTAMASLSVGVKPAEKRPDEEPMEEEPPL

In the case of `Nc1ccccc1NC(=O)c1ccc(CNC(=O)OCc2cccnc2)cc1` [ENTINOSTAT], the Activity (MDA-MB-468) is reported as “Active”, the Activity (MCF7) is reported as “Active” and the IC50 [1] is reported as 13 µM. The Activity (MDA-MB-231 [2]) was “Active”, the Activity (MDA-MB-231 [3]) was “Active” and the Activity (MDA-MB-231 [4]) was “Active”. The Activity (MDA-MB-231 [5]) was “Active”, the Activity (MDA-MB-231 [6]) was “Active” and the Activity (MDA-MB-231 [7]) was “Active”. For the same compound, the Activity (MDA-MB-231 [8]) was “Active” and the IC50 (HepG2) was 4.54 µM.

In the case of `Nc1ccc(F)cc1NC(=O)c1ccc(CNC(=O)/C=C/c2cccnc2)cc1`, the IC50 (MDA-MB-231 [9]) is reported as 3.6 µM, the Activity (MDA-MB-468) is reported as “Active” and the Activity (MCF7) is reported as “Active”. The IC50 [1] was 20.4 µM, the IC50 (cells) was 17.1 µM and the IC50 (HepG2) was greater than 8 µM.

`Nc1nc(Nc2ccc(F)c(Cl)c2)c2ncn(Cc3ccc(C(=O)Nc4ccccc4N)cc3)c2n1` gave an IC50 (Histone deacetylase 4) greater than 10 µM, an IC50 (Histone deacetylase 5) greater than 10 µM and an IC50 (Histone deacetylase 7) greater than 10 µM. For the same compound, the IC50 (Histone deacetylase 9) was greater than 10 µM.
